Data: ChEMBL document CHEMBL4420075, “Seriniquinones, melanoma-specific anticancer agents” (2016)
Active and inactive are the calls of the source. The calls are words filed in the database; no cut-off is given here.

Assays:
NCI-H322M = experiment: Growth inhibition of human NCI-H322M cells assessed as cell growth incubated for 48 hrs by sulforhodamine B assay; format: functional; set-up: scale not given: the % may be the effect or the level left
NCI/ADR-RES = experiment: Growth inhibition of human NCI/ADR-RES cells assessed as cell growth incubated for 48 hrs by sulforhodamine B assay; format: functional; set-up: concentration or dose not given beside the values
A498 = experiment: Growth inhibition of human A498 cells assessed as cell growth incubated for 48 hrs by sulforhodamine B assay; format: functional; set-up: concentration or dose not given beside the values
MDA-MB-468 = experiment: Growth inhibition of human MDA-MB-468 cells assessed as cell growth incubated for 48 hrs by sulforhodamine B assay; format: functional; set-up: concentration or dose not given beside the values
HOP-92 = experiment: Growth inhibition of human HOP92 cells assessed as cell growth incubated for 48 hrs by sulforhodamine B assay; format: functional; set-up: concentration or dose not given beside the values
HCT-15 = experiment: Growth inhibition of human HCT15 cells assessed as cell growth incubated for 48 hrs by sulforhodamine B assay; format: functional; set-up: scale not given: the % may be the effect or the level left
SF-295 = experiment: Growth inhibition of human SF295 cells assessed as cell growth incubated for 48 hrs by sulforhodamine B assay; format: functional; set-up: concentration or dose not given beside the values
KM12 = experiment: Growth inhibition of human KM12 cells assessed as cell growth incubated for 48 hrs by sulforhodamine B assay; format: functional; set-up: concentration or dose not given beside the values
SN12C = experiment: Growth inhibition of human SN12C cells assessed as cell growth incubated for 48 hrs by sulforhodamine B assay; format: functional; set-up: concentration or dose not given beside the values
SK-MEL-2 = experiment: Growth inhibition of human SK-MEL-2 cells assessed as cell growth incubated for 48 hrs by sulforhodamine B assay; format: functional; set-up: concentration or dose not given beside the values
TK-10 = experiment: Growth inhibition of human TK10 cells assessed as cell growth incubated for 48 hrs by sulforhodamine B assay; format: functional; set-up: concentration or dose not given beside the values
SK-MEL-28 = experiment: Growth inhibition of human SK-MEL-28 cells assessed as cell growth incubated for 48 hrs by sulforhodamine B assay; format: functional; set-up: concentration or dose not given beside the values
MDA-MB-435 = experiment: Growth inhibition of human MDA-MB-435 cells assessed as cell growth incubated for 48 hrs by sulforhodamine B assay; format: functional; set-up: concentration or dose not given beside the values
HCT-116 = experiment: Growth inhibition of human HCT116 cells assessed as cell growth incubated for 48 hrs by sulforhodamine B assay; format: functional; set-up: concentration or dose not given beside the values
SF-539 = experiment: Growth inhibition of human SF539 cells assessed as cell growth incubated for 48 hrs by sulforhodamine B assay; format: functional; set-up: scale not given: the % may be the effect or the level left
SNB-75 = experiment: Growth inhibition of human SNB75 cells assessed as cell growth incubated for 48 hrs by sulforhodamine B assay; format: functional; set-up: concentration or dose not given beside the values
786-0 = experiment: Growth inhibition of human 786-0 cells assessed as cell growth incubated for 48 hrs by sulforhodamine B assay; format: functional; set-up: concentration or dose not given beside the values
SF-268 = experiment: Growth inhibition of human SF268 cells assessed as cell growth incubated for 48 hrs by sulforhodamine B assay; format: functional; set-up: concentration or dose not given beside the values
Malme-3M = experiment: Growth inhibition of human MALME-3M cells assessed as cell growth incubated for 48 hrs by sulforhodamine B assay; format: functional; set-up: scale not given: the % may be the effect or the level left
OVCAR-4 = experiment: Growth inhibition of human OVCAR4 cells assessed as cell growth incubated for 48 hrs by sulforhodamine B assay; format: functional; set-up: concentration or dose not given beside the values
NCI-H522 = experiment: Growth inhibition of human NCI-H522 cells assessed as cell growth incubated for 48 hrs by sulforhodamine B assay; format: functional; set-up: concentration or dose not given beside the values
SR = experiment: Growth inhibition of human SR cells assessed as cell growth incubated for 48 hrs by sulforhodamine B assay; format: functional; set-up: concentration or dose not given beside the values
NCI-H23 = experiment: Growth inhibition of human NCI-H23 cells assessed as cell growth incubated for 48 hrs by sulforhodamine B assay; format: functional; set-up: concentration or dose not given beside the values
SNB-19 = experiment: Growth inhibition of human SNB19 cells assessed as cell growth incubated for 48 hrs by sulforhodamine B assay; format: functional; set-up: concentration or dose not given beside the values
HOP-62 = experiment: Growth inhibition of human HOP62 cells assessed as cell growth incubated for 48 hrs by sulforhodamine B assay; format: functional; set-up: concentration or dose not given beside the values
MOLT-4 = experiment: Growth inhibition of human MOLT4 cells assessed as cell growth incubated for 48 hrs by sulforhodamine B assay; format: functional; set-up: concentration or dose not given beside the values
OVCAR-8 = experiment: Growth inhibition of human OVCAR8 cells assessed as cell growth incubated for 48 hrs by sulforhodamine B assay; format: functional; set-up: concentration or dose not given beside the values
Hs-578T = experiment: Growth inhibition of human Hs 578T cells assessed as cell growth incubated for 48 hrs by sulforhodamine B assay; format: functional; set-up: concentration or dose not given beside the values
OVCAR-5 = experiment: Growth inhibition of human OVCAR5 cells assessed as cell growth incubated for 48 hrs by sulforhodamine B assay; format: functional; set-up: scale not given: the % may be the effect or the level left
UO-31 = experiment: Growth inhibition of human UO31 cells assessed as cell growth incubated for 48 hrs by sulforhodamine B assay; format: functional; set-up: concentration or dose not given beside the values
NCI-H226 = experiment: Growth inhibition of human NCI-H226 cells assessed as cell growth incubated for 48 hrs by sulforhodamine B assay; format: functional; set-up: concentration or dose not given beside the values
A549 = experiment: Growth inhibition of human A549/ATCC cells assessed as cell growth incubated for 48 hrs by sulforhodamine B assay; format: functional; set-up: concentration or dose not given beside the values
CCRF-CEM = experiment: Growth inhibition of human CCRF-CEM cells assessed as cell growth incubated for 48 hrs by sulforhodamine B assay; format: functional; set-up: concentration or dose not given beside the values
HT-29 = experiment: Growth inhibition of human HT-29 cells assessed as cell growth incubated for 48 hrs by sulforhodamine B assay; format: functional; set-up: concentration or dose not given beside the values
SW-620 = experiment: Growth inhibition of human SW620 cells assessed as cell growth incubated for 48 hrs by sulforhodamine B assay; format: functional; set-up: concentration or dose not given beside the values
T47D = experiment: Growth inhibition of human T47D cells assessed as cell growth incubated for 48 hrs by sulforhodamine B assay; format: functional; set-up: concentration or dose not given beside the values
CAKI-1 = experiment: Growth inhibition of human Caki1 cells assessed as cell growth incubated for 48 hrs by sulforhodamine B assay; format: functional; set-up: concentration or dose not given beside the values
COLO 205 = experiment: Growth inhibition of human COLO205 cells assessed as cell growth incubated for 48 hrs by sulforhodamine B assay; format: functional; set-up: concentration or dose not given beside the values
ACHN = experiment: Growth inhibition of human ACHN cells assessed as cell growth incubated for 48 hrs by sulforhodamine B assay; format: functional; set-up: scale not given: the % may be the effect or the level left
PC-3 = experiment: Growth inhibition of human PC3 cells assessed as cell growth incubated for 48 hrs by sulforhodamine B assay; format: functional; set-up: concentration or dose not given beside the values
HL-60(TB) = experiment: Growth inhibition of human HL-60(TB) cells assessed as cell growth incubated for 48 hrs by sulforhodamine B assay; format: functional; set-up: concentration or dose not given beside the values
OVCAR-3 = experiment: Growth inhibition of human OVCAR3 cells assessed as cell growth incubated for 48 hrs by sulforhodamine B assay; format: functional; set-up: concentration or dose not given beside the values
MDA-MB-231 = experiment: Growth inhibition of human MDA-MB-231 cells assessed as cell growth incubated for 48 hrs by sulforhodamine B assay; format: functional; set-up: concentration or dose not given beside the values
MCF7 = experiment: Growth inhibition of human MCF7 cells assessed as cell growth incubated for 48 hrs by sulforhodamine B assay; format: functional; set-up: concentration or dose not given beside the values
UACC-62 = experiment: Growth inhibition of human UACC62 cells assessed as cell growth incubated for 48 hrs by sulforhodamine B assay; format: functional; set-up: concentration or dose not given beside the values
K562 = experiment: Growth inhibition of human K562 cells assessed as cell growth incubated for 48 hrs by sulforhodamine B assay; format: functional; set-up: concentration or dose not given beside the values
NCI-H460 = experiment: Growth inhibition of human NCI-H460 cells assessed as cell growth incubated for 48 hrs by sulforhodamine B assay; format: functional; set-up: concentration or dose not given beside the values
HCC 2998 = experiment: Growth inhibition of human HCC2998 cells assessed as cell growth incubated for 48 hrs by sulforhodamine B assay; format: functional; set-up: concentration or dose not given beside the values
RPMI-8226 = experiment: Growth inhibition of human RPMI8226 cells assessed as cell growth incubated for 48 hrs by sulforhodamine B assay; format: functional; set-up: concentration or dose not given beside the values
LOX IMVI = experiment: Growth inhibition of human LOXIMVI cells assessed as cell growth incubated for 48 hrs by sulforhodamine B assay; format: functional; set-up: concentration or dose not given beside the values
RXF 393 = experiment: Growth inhibition of human RXF393 cells assessed as cell growth incubated for 48 hrs by sulforhodamine B assay; format: functional; set-up: concentration or dose not given beside the values
M14 = experiment: Growth inhibition of human M14 cells assessed as cell growth incubated for 48 hrs by sulforhodamine B assay; format: functional; set-up: concentration or dose not given beside the values
U-251 = experiment: Growth inhibition of human U251 cells assessed as cell growth incubated for 48 hrs by sulforhodamine B assay; format: functional; set-up: concentration or dose not given beside the values
SK-OV-3 = experiment: Growth inhibition of human SKOV3 cells assessed as cell growth incubated for 48 hrs by sulforhodamine B assay; format: functional; set-up: concentration or dose not given beside the values
UACC-257 = experiment: Growth inhibition of human UACC257 cells assessed as cell growth incubated for 48 hrs by sulforhodamine B assay; format: functional; set-up: concentration or dose not given beside the values
SK-MEL-5 = experiment: Growth inhibition of human SK-MEL-5 cells assessed as cell growth incubated for 48 hrs by sulforhodamine B assay; format: functional; set-up: concentration or dose not given beside the values
BT-549 = experiment: Growth inhibition of human BT549 cells assessed as cell growth incubated for 48 hrs by sulforhodamine B assay; format: functional; set-up: concentration or dose not given beside the values
DU-145 = experiment: Growth inhibition of human DU145 cells assessed as cell growth incubated for 48 hrs by sulforhodamine B assay; format: functional; set-up: concentration or dose not given beside the values
Dermcidin (Homo sapiens) = target: T1, Dermcidin (Homo sapiens) (UniProt P81605); experiment: Covalent binding affinity to DCD-1L (unknown origin) at 50 uM incubated for 24 hrs by denatured SDS-PAGE gel electrophoresis
T1 sequence (whole entry): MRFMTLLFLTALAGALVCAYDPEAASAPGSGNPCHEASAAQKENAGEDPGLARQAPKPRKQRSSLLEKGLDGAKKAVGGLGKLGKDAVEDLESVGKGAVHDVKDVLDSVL

`NCC1CN(C(=O)CCc2ccc3c(=O)c4sc5c(=O)c6ccccc6c(=O)c5c4c(=O)c3c2)C1.O=C(O)C(F)(F)F` showed an Activity (NCI-H322M) of -97.48%, an Activity (NCI/ADR-RES) of -15.35% and an Activity (A498) of -87.3%. It also gave an Activity (MDA-MB-468) of -83.65%, an Activity (HOP-92) of -32.93% and an Activity (HCT-15) of -61.54%. The Activity (SF-295) was -92.59%, the Activity (KM12) was -76.76% and the Activity (SN12C) was -69%. For the same compound, the Activity (SK-MEL-2) was -72.32%, the Activity (TK-10) was -89.49% and the Activity (SK-MEL-28) was -96.8%. For the same compound, the Activity (MDA-MB-435) was -93.07%, the Activity (HCT-116) was -80.84% and the Activity (SF-539) was -99.46%. For the same compound, the Activity (SNB-75) was -95.74%, the Activity (786-0) was -95.07% and the Activity (SF-268) was -57.54%. It also gave an Activity (Malme-3M) of -93.22%, an Activity (OVCAR-4) of -71.07% and an Activity (NCI-H522) of -72.26%. For the same compound, the Activity (SR) was -25%, the Activity (NCI-H23) was -50.82% and the Activity (SNB-19) was -98.59%. The Activity (HOP-62) was -90.94%, the Activity (MOLT-4) was -36.2% and the Activity (OVCAR-8) was -38.88%. For the same compound, the Activity (Hs-578T) was 1.09%, the Activity (OVCAR-5) was -85.63% and the Activity (UO-31) was -96.98%. It also gave an Activity (NCI-H226) of -49.62%, an Activity (A549) of -55.33% and an Activity (CCRF-CEM) of -29.57%. The Activity (HT-29) was -46.19%, the Activity (SW-620) was -60.32% and the Activity (T47D) was -51.1%. The Activity (CAKI-1) was -78.75%, the Activity (COLO 205) was -91.79% and the Activity (ACHN) was -96.22%. It also gave an Activity (PC-3) of -79.46%, an Activity (HL-60(TB)) of -46.78% and an Activity (OVCAR-3) of -68.52%. It also gave an Activity (MDA-MB-231) of -15.99%, an Activity (MCF7) of -58.78% and an Activity (UACC-62) of -88.01%. For the same compound, the Activity (K562) was -59.88%, the Activity (NCI-H460) was -52.32% and the Activity (HCC 2998) was -90.76%. For the same compound, the Activity (RPMI-8226) was -39.84%, the Activity (LOX IMVI) was -82.6% and the Activity (RXF 393) was -77.25%. The Activity (M14) was -93.82%, the Activity (U-251) was -92.83% and the Activity (SK-OV-3) was -97.49%. The Activity (UACC-257) was -92.08%, the Activity (SK-MEL-5) was -98.07% and the Activity (BT-549) was -96.67%. For the same compound, the Activity (DU-145) was -94.41%.

For `CC(C)=CCCc1ccc2c(=O)c3c(sc4c(=O)c5ccccc5c(=O)c43)c(=O)c2c1`, the Activity (Dermcidin (Homo sapiens)) was “Active”.
